#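 These data come from cells grown in 96-well plates and exposed to compound for 48 hours at five concentrations. GI50 = concentration required for 50% inhibition of growth.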 Calls of active or inactive are those of the source. Cut-off read from the data, not from the text of the source: active = GI50 up to about 1.1 µM and inactive = higher.
# What was measured:
# Assay in all cases: NCI tumour cell line growth inhibition, 48 h
# [1] = test system: A498
# [2] = test system: CAKI-1
# [3] = test system: CCRF-CEM
# [4] = test system: HL-60
# [5] = test system: HOP-92
# [6] = test system: MCF7
# [7] = test system: MDA-MB-435
# [8] = test system: MDA-N
# [9] = test system: OVCAR-3
# [10] = test system: OVCAR-5
# [11] = test system: RXF 393
# [12] = test system: SF-295
# [13] = test system: SF-539
# [14] = test system: SN12C
# [15] = test system: SNB-75
# [16] = test system: SR
# [17] = test system: T47D
# [18] = test system: SK-MEL-2
# [19] = test system: TK-10
# [20] = test system: OVCAR-4
Compound,GI50 [1],GI50 [2],GI50 [3],GI50 [4],GI50 [5],GI50 [6],GI50 [7],GI50 [8],GI50 [9],GI50 [10],GI50 [11],GI50 [12],GI50 [13],GI50 [14],GI50 [15],GI50 [16],GI50 [17],GI50 [18],GI50 [19],GI50 [20]
O=[N+]([O-])/C=C(\CS(=O)(=O)c1ccccc1)c1ccc2c(c1)OCO2,31.8 µM (inactive),29.2 µM (inactive),0.56 µM (active),38 µM (inactive),> 100 µM (inactive),48.2 µM (inactive),23.8 µM (inactive),39.2 µM (inactive),28.4 µM (inactive),27 µM (inactive),64.3 µM (inactive),36.7 µM (inactive),> 100 µM (inactive),39.7 µM (inactive),> 100 µM (inactive),47.5 µM (inactive),> 100 µM (inactive),,,
CCc1ccc(Nc2cc(=O)[nH]c(SCc3ccccc3)n2)cc1,> 100 µM (inactive),> 100 µM (inactive),> 100 µM (inactive),> 100 µM (inactive),31.2 µM (inactive),> 100 µM (inactive),> 100 µM (inactive),> 100 µM (inactive),39.4 µM (inactive),> 100 µM (inactive),> 100 µM (inactive),46.2 µM (inactive),52 µM (inactive),> 100 µM (inactive),30.3 µM (inactive),> 100 µM (inactive),> 100 µM (inactive),> 100 µM (inactive),> 100 µM (inactive),
COC(=O)c1cc2c3c(c(C(C)=O)c(OC)c2[nH]1)NCC3,> 50 µM (inactive),> 50 µM (inactive),> 50 µM (inactive),> 50 µM (inactive),,> 50 µM (inactive),> 50 µM (inactive),> 50 µM (inactive),> 50 µM (inactive),> 50 µM (inactive),> 50 µM (inactive),> 50 µM (inactive),> 50 µM (inactive),> 50 µM (inactive),> 50 µM (inactive),> 50 µM (inactive),> 50 µM (inactive),> 50 µM (inactive),> 50 µM (inactive),
CC(C)(C)C(=O)CC1=Nc2ccccc2SC1(O)CC(=O)C(C)(C)C (centres undefined),> 100 µM (inactive),14.7 µM (inactive),8.49 µM (inactive),30.9 µM (inactive),,25 µM (inactive),22.6 µM (inactive),32.7 µM (inactive),17 µM (inactive),19.8 µM (inactive),23.5 µM (inactive),24.8 µM (inactive),22.9 µM (inactive),21 µM (inactive),,11.8 µM (inactive),19.7 µM (inactive),13.7 µM (inactive),64 µM (inactive),
O=C1CSC(/C=C/c2ccccc2)N1c1ccc(-c2ccc(-n3c(-c4ccccc4)nc4ccccc4c3=O)cc2)cc1 (centres undefined),42.2 µM (inactive),33.7 µM (inactive),20.3 µM (inactive),28.8 µM (inactive),18 µM (inactive),22.6 µM (inactive),19.4 µM (inactive),23.4 µM (inactive),21.2 µM (inactive),6.04 µM (inactive),,20.1 µM (inactive),,27.4 µM (inactive),0.562 µM (active),28.3 µM (inactive),15.2 µM (inactive),19.1 µM (inactive),39.5 µM (inactive),15.8 µM (inactive)
NC(=O)c1ncn(C2CCC(CP(=O)(O)O)C2)c1N (centres undefined),,> 100 µM (inactive),,,> 100 µM (inactive),> 100 µM (inactive),> 100 µM (inactive),> 100 µM (inactive),> 100 µM (inactive),> 100 µM (inactive),> 100 µM (inactive),> 100 µM (inactive),> 100 µM (inactive),> 100 µM (inactive),> 100 µM (inactive),> 100 µM (inactive),> 100 µM (inactive),> 100 µM (inactive),> 100 µM (inactive),> 100 µM (inactive)
O=[N+]([O-])C1(C2([N+](=O)[O-])CCCC2)CCCC1,> 100 µM (inactive),> 100 µM (inactive),> 100 µM (inactive),> 100 µM (inactive),,> 100 µM (inactive),> 100 µM (inactive),> 100 µM (inactive),> 100 µM (inactive),> 100 µM (inactive),> 100 µM (inactive),,> 100 µM (inactive),> 100 µM (inactive),61 µM (inactive),> 100 µM (inactive),> 100 µM (inactive),> 100 µM (inactive),> 100 µM (inactive),> 100 µM (inactive)
COc1cc(Cn2c3c(c4c(CN(C)C)c(O)ccc42)C(=O)c2ccccc2C3=O)cc(OC)c1,10.1 µM (inactive),13 µM (inactive),24.3 µM (inactive),22.4 µM (inactive),,15.9 µM (inactive),18.1 µM (inactive),15.7 µM (inactive),24.2 µM (inactive),21.7 µM (inactive),,21.5 µM (inactive),16.3 µM (inactive),22.9 µM (inactive),0.414 µM (active),10.3 µM (inactive),15.4 µM (inactive),16.3 µM (inactive),28.7 µM (inactive),13.9 µM (inactive)
COc1c(C(C)(C)C)cc(CC2C(=O)C=CC2=O)cc1C(C)(C)C,18 µM (inactive),15.3 µM (inactive),2.29 µM (inactive),4.34 µM (inactive),16.1 µM (inactive),16.7 µM (inactive),15.3 µM (inactive),15.2 µM (inactive),13.9 µM (inactive),18.3 µM (inactive),14.8 µM (inactive),20.2 µM (inactive),11.1 µM (inactive),26.5 µM (inactive),,3.89 µM (inactive),4.18 µM (inactive),19 µM (inactive),5.92 µM (inactive),21.2 µM (inactive)
CC1C(OC2O[C@@H]3O[C@@]4(C)CC[C@H]5[C@H](C)CC[C@@H](C2C)[C@@]35O4)O[C@@H]2O[C@@]3(C)CC[C@H]4[C@H](C)CC[C@@H]1[C@@]24O3 (some centres undefined),> 50 µM (inactive),> 50 µM (inactive),> 50 µM (inactive),> 50 µM (inactive),,> 50 µM (inactive),> 50 µM (inactive),> 50 µM (inactive),> 50 µM (inactive),> 50 µM (inactive),,> 50 µM (inactive),> 50 µM (inactive),> 50 µM (inactive),> 50 µM (inactive),> 50 µM (inactive),> 50 µM (inactive),> 50 µM (inactive),> 50 µM (inactive),> 50 µM (inactive)
N=c1oc2ccccc2cc1-c1nc2ccccc2[nH]1,,43.9 µM (inactive),14 µM (inactive),7.05 µM (inactive),2.23 µM (inactive),19.9 µM (inactive),15.5 µM (inactive),17.3 µM (inactive),,> 100 µM (inactive),38.9 µM (inactive),78.3 µM (inactive),44.3 µM (inactive),> 100 µM (inactive),41.1 µM (inactive),19.2 µM (inactive),16.7 µM (inactive),49.2 µM (inactive),17.7 µM (inactive),> 100 µM (inactive)
CC(=O)NC1=C(NCCCl)C(=O)c2ccccc2C1=O,,,19.1 µM (inactive),> 10 µM (inactive),56.6 µM (inactive),35.2 µM (inactive),16.6 µM (inactive),21.4 µM (inactive),49.5 µM (inactive),81.8 µM (inactive),30 µM (inactive),37.4 µM (inactive),40.8 µM (inactive),34.7 µM (inactive),24.3 µM (inactive),30.8 µM (inactive),25.1 µM (inactive),,,44.6 µM (inactive)
CCOC(=O)C(C#N)C1=CC(=O)C(=O)c2ccc(OC)cc21 (centres undefined),21.8 µM (inactive),29 µM (inactive),43.3 µM (inactive),38.3 µM (inactive),,16.1 µM (inactive),17.6 µM (inactive),5.83 µM (inactive),17.9 µM (inactive),20.1 µM (inactive),21.8 µM (inactive),23.3 µM (inactive),18.4 µM (inactive),18.6 µM (inactive),20.8 µM (inactive),57.1 µM (inactive),14.9 µM (inactive),12.8 µM (inactive),38.5 µM (inactive),19 µM (inactive)
O=C(Nc1ccc2nc(O)n[n+]([O-])c2c1)C(F)(F)F,> 100 µM (inactive),> 100 µM (inactive),> 100 µM (inactive),> 100 µM (inactive),,> 100 µM (inactive),> 100 µM (inactive),> 100 µM (inactive),> 100 µM (inactive),> 100 µM (inactive),,> 100 µM (inactive),> 100 µM (inactive),> 100 µM (inactive),> 100 µM (inactive),> 100 µM (inactive),> 100 µM (inactive),> 100 µM (inactive),> 100 µM (inactive),> 100 µM (inactive)
O=C1CC(c2ccccc2)C2(C(=O)NC(=S)NC2=O)C(c2ccccc2)C1 (centres undefined),,> 75 µM (inactive),> 75 µM (inactive),41.3 µM (inactive),13.3 µM (inactive),> 75 µM (inactive),55.8 µM (inactive),> 75 µM (inactive),> 75 µM (inactive),> 75 µM (inactive),> 75 µM (inactive),> 75 µM (inactive),> 75 µM (inactive),> 75 µM (inactive),> 75 µM (inactive),71 µM (inactive),> 75 µM (inactive),> 75 µM (inactive),> 75 µM (inactive),> 75 µM (inactive)

# — ChEMBL document CHEMBL1201862, “PubChem BioAssay data set” (2004)
